# Laboratory results reported in PubChem BioAssay AID2060902 (Molecular Pharmacology Branch, DTP, NCI, 2025).
# System: 485368-065-R3-J5-PDC spheroids with HUVEC/MSC, viability
# Test: Anticancer human tumor 485368-065-R3-J5-PDC patient-derived pancreatic carcinoma cell line growth inhibition [RAS]
# Details: for IC50: curve of first compound; for viability, T/C: stronger effect = lower value
# In short: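 Agents were tested in combination matrices in half-log decrements from a top concentration at or near clinical Cmax (10 microM if undetermined). Targets were multi-cell spheroids of tumour lines plus HUVEC and MSC stromal cells.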
# 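Also: spheroids exposed to agents for seven days before readout.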
compound,measurement,setting,value
CC1(C)CCC(Nc2ncc(C(F)(F)F)c(-c3c[nH]c4c(P(C)(C)=O)c(C#N)ccc34)n2)CN1 (stereo unspecified) + C=CC(=O)N1CCN(c2nc(OCC3CCCN3C)nc3c(F)c(-c4nc(N)cc(C)c4C(F)(F)F)c(Cl)cc23)C(C)C1,IC50,second compound 0.00316 µM,2.36 nM
same,IC50,second compound 0.01 µM,2.61 nM
same,IC50,second compound 0.0316 µM,3.73 nM
same,IC50,second compound 0.1 µM,3.95 nM
same,IC50,second compound 0.316 µM,2.89 nM
same,IC50,second compound 1 µM,4.02 nM
same,"viability, T/C","second compound 0.00316 µM, first compound 0.000949 µM",92.5%
same,"viability, T/C","second compound 0.00316 µM, first compound 0.003 µM",39.1%
same,"viability, T/C","second compound 0.00316 µM, first compound 0.00949 µM",26.9%
same,"viability, T/C","second compound 0.00316 µM, first compound 0.03 µM",26.3%
same,"viability, T/C","second compound 0.00316 µM, first compound 0.0949 µM",30.9%
same,"viability, T/C","second compound 0.00316 µM, first compound 0.3 µM",27.9%
same,"viability, T/C","second compound 0.01 µM, first compound 0.000949 µM",87.5%
same,"viability, T/C","second compound 0.01 µM, first compound 0.003 µM",44.9%
same,"viability, T/C","second compound 0.01 µM, first compound 0.00949 µM",26.5%
same,"viability, T/C","second compound 0.01 µM, first compound 0.03 µM",28.2%
same,"viability, T/C","second compound 0.01 µM, first compound 0.0949 µM",28.2%
same,"viability, T/C","second compound 0.01 µM, first compound 0.3 µM",29.1%
same,"viability, T/C","second compound 0.0316 µM, first compound 0.000949 µM",73.6%
same,"viability, T/C","second compound 0.0316 µM, first compound 0.003 µM",54%
same,"viability, T/C","second compound 0.0316 µM, first compound 0.00949 µM",32.8%
same,"viability, T/C","second compound 0.0316 µM, first compound 0.03 µM",30.6%
same,"viability, T/C","second compound 0.0316 µM, first compound 0.0949 µM",30.8%
same,"viability, T/C","second compound 0.0316 µM, first compound 0.3 µM",28.2%
same,"viability, T/C","second compound 0.1 µM, first compound 0.000949 µM",83.5%
same,"viability, T/C","second compound 0.1 µM, first compound 0.003 µM",55.5%
same,"viability, T/C","second compound 0.1 µM, first compound 0.00949 µM",32.3%
same,"viability, T/C","second compound 0.1 µM, first compound 0.03 µM",30.9%
same,"viability, T/C","second compound 0.1 µM, first compound 0.0949 µM",30.5%
same,"viability, T/C","second compound 0.1 µM, first compound 0.3 µM",34.3%
same,"viability, T/C","second compound 0.316 µM, first compound 0.000949 µM",100%
same,"viability, T/C","second compound 0.316 µM, first compound 0.003 µM",48.4%
same,"viability, T/C","second compound 0.316 µM, first compound 0.00949 µM",32.6%
same,"viability, T/C","second compound 0.316 µM, first compound 0.03 µM",28.4%
same,"viability, T/C","second compound 0.316 µM, first compound 0.0949 µM",30.6%
same,"viability, T/C","second compound 0.316 µM, first compound 0.3 µM",27.4%
same,"viability, T/C","second compound 1 µM, first compound 0.000949 µM",87.1%
same,"viability, T/C","second compound 1 µM, first compound 0.003 µM",55.1%
same,"viability, T/C","second compound 1 µM, first compound 0.00949 µM",35.8%
same,"viability, T/C","second compound 1 µM, first compound 0.03 µM",25.6%
same,"viability, T/C","second compound 1 µM, first compound 0.0949 µM",32.1%
same,"viability, T/C","second compound 1 µM, first compound 0.3 µM",34.2%
NC1c2ccccc2OC12CCN(c1cnc3c(N4CCCc5ncccc54)n[nH]c3n1)CC2 (stereo unspecified) + C#Cc1c(F)ccc2cc(O)cc(-c3ncc4c(N5CC6CCC(C5)N6)nc(OCC56CCCN5CC(F)C6)nc4c3F)c12,IC50,second compound 0.0316 µM,> 10000 nM
same,IC50,second compound 0.1 µM,2380 nM
same,IC50,second compound 0.316 µM,1020 nM
same,IC50,second compound 1 µM,117 nM
same,IC50,second compound 3.16 µM,< 31.6 nM
same,IC50,second compound 10 µM,< 31.6 nM
same,"viability, T/C","second compound 0.0316 µM, first compound 0.0316 µM",82.1%
same,"viability, T/C","second compound 0.0316 µM, first compound 0.1 µM",79.2%
same,"viability, T/C","second compound 0.0316 µM, first compound 0.316 µM",70.9%
same,"viability, T/C","second compound 0.0316 µM, first compound 1 µM",66.3%
same,"viability, T/C","second compound 0.0316 µM, first compound 3.16 µM",72.1%
same,"viability, T/C","second compound 0.0316 µM, first compound 10 µM",55%
same,"viability, T/C","second compound 0.1 µM, first compound 0.0316 µM",76%
same,"viability, T/C","second compound 0.1 µM, first compound 0.1 µM",72.9%
same,"viability, T/C","second compound 0.1 µM, first compound 0.316 µM",61.7%
same,"viability, T/C","second compound 0.1 µM, first compound 1 µM",60.7%
same,"viability, T/C","second compound 0.1 µM, first compound 3.16 µM",44.2%
same,"viability, T/C","second compound 0.1 µM, first compound 10 µM",43.9%
same,"viability, T/C","second compound 0.316 µM, first compound 0.0316 µM",69.9%
same,"viability, T/C","second compound 0.316 µM, first compound 0.1 µM",61.6%
same,"viability, T/C","second compound 0.316 µM, first compound 0.316 µM",58.6%
same,"viability, T/C","second compound 0.316 µM, first compound 1 µM",54.4%
same,"viability, T/C","second compound 0.316 µM, first compound 3.16 µM",35.5%
same,"viability, T/C","second compound 0.316 µM, first compound 10 µM",28.8%
same,"viability, T/C","second compound 1 µM, first compound 0.0316 µM",60.3%
same,"viability, T/C","second compound 1 µM, first compound 0.1 µM",47.4%
same,"viability, T/C","second compound 1 µM, first compound 0.316 µM",43.4%
same,"viability, T/C","second compound 1 µM, first compound 1 µM",37.9%
same,"viability, T/C","second compound 1 µM, first compound 3.16 µM",28.9%
same,"viability, T/C","second compound 1 µM, first compound 10 µM",18.9%
same,"viability, T/C","second compound 3.16 µM, first compound 0.0316 µM",40%
same,"viability, T/C","second compound 3.16 µM, first compound 0.1 µM",33.7%
same,"viability, T/C","second compound 3.16 µM, first compound 0.316 µM",27.5%
same,"viability, T/C","second compound 3.16 µM, first compound 1 µM",23.7%
same,"viability, T/C","second compound 3.16 µM, first compound 3.16 µM",17.8%
same,"viability, T/C","second compound 3.16 µM, first compound 10 µM",17.5%
same,"viability, T/C","second compound 10 µM, first compound 0.0316 µM",23.3%
same,"viability, T/C","second compound 10 µM, first compound 0.1 µM",20.3%
same,"viability, T/C","second compound 10 µM, first compound 0.316 µM",17.9%
same,"viability, T/C","second compound 10 µM, first compound 1 µM",14.2%
same,"viability, T/C","second compound 10 µM, first compound 3.16 µM",13%
same,"viability, T/C","second compound 10 µM, first compound 10 µM",12.8%
O=C(c1ccc(F)c(F)c1Nc1ccc(I)cc1F)N1CC(O)([C@@H]2CCCCN2)C1 + CCn1c(-c2cc(N3CCN(C)CC3)cnc2C(C)OC)c2c3cc(ccc31)-c1csc(n1)CC(NC(=O)C1CC1C)C(=O)N1CCCC(N1)C(=O)OCC(C)(C)C2,IC50,second compound 0.000949 µM,< 3.16 nM
same,IC50,second compound 0.003 µM,< 3.16 nM
same,IC50,second compound 0.00949 µM,< 3.16 nM
same,IC50,second compound 0.03 µM,< 3.16 nM
same,IC50,second compound 0.0949 µM,< 3.16 nM
same,IC50,second compound 0.3 µM,< 3.16 nM
same,"viability, T/C","second compound 0.000949 µM, first compound 0.00316 µM",32.9%
same,"viability, T/C","second compound 0.000949 µM, first compound 0.01 µM",29.9%
same,"viability, T/C","second compound 0.000949 µM, first compound 0.0316 µM",22.8%
same,"viability, T/C","second compound 0.000949 µM, first compound 0.1 µM",17.6%
same,"viability, T/C","second compound 0.000949 µM, first compound 0.316 µM",12.8%
same,"viability, T/C","second compound 0.000949 µM, first compound 1 µM",3.33%
same,"viability, T/C","second compound 0.003 µM, first compound 0.00316 µM",19.3%
same,"viability, T/C","second compound 0.003 µM, first compound 0.01 µM",20.3%
same,"viability, T/C","second compound 0.003 µM, first compound 0.0316 µM",14.9%
same,"viability, T/C","second compound 0.003 µM, first compound 0.1 µM",10.8%
same,"viability, T/C","second compound 0.003 µM, first compound 0.316 µM",4.68%
same,"viability, T/C","second compound 0.003 µM, first compound 1 µM",1.33%
same,"viability, T/C","second compound 0.00949 µM, first compound 0.00316 µM",16.1%
same,"viability, T/C","second compound 0.00949 µM, first compound 0.01 µM",12.9%
same,"viability, T/C","second compound 0.00949 µM, first compound 0.0316 µM",10.6%
same,"viability, T/C","second compound 0.00949 µM, first compound 0.1 µM",5.68%
same,"viability, T/C","second compound 0.00949 µM, first compound 0.316 µM",1.77%
same,"viability, T/C","second compound 0.00949 µM, first compound 1 µM",1.26%
same,"viability, T/C","second compound 0.03 µM, first compound 0.00316 µM",10.3%
same,"viability, T/C","second compound 0.03 µM, first compound 0.01 µM",8.49%
same,"viability, T/C","second compound 0.03 µM, first compound 0.0316 µM",6.41%
same,"viability, T/C","second compound 0.03 µM, first compound 0.1 µM",2.18%
same,"viability, T/C","second compound 0.03 µM, first compound 0.316 µM",1.53%
same,"viability, T/C","second compound 0.03 µM, first compound 1 µM",1.44%
same,"viability, T/C","second compound 0.0949 µM, first compound 0.00316 µM",6.98%
same,"viability, T/C","second compound 0.0949 µM, first compound 0.01 µM",5.08%
same,"viability, T/C","second compound 0.0949 µM, first compound 0.0316 µM",3%
same,"viability, T/C","second compound 0.0949 µM, first compound 0.1 µM",1.9%
same,"viability, T/C","second compound 0.0949 µM, first compound 0.316 µM",1.88%
same,"viability, T/C","second compound 0.0949 µM, first compound 1 µM",1.97%
same,"viability, T/C","second compound 0.3 µM, first compound 0.00316 µM",6.37%
same,"viability, T/C","second compound 0.3 µM, first compound 0.01 µM",3.9%
same,"viability, T/C","second compound 0.3 µM, first compound 0.0316 µM",2.16%
same,"viability, T/C","second compound 0.3 µM, first compound 0.1 µM",2.03%
same,"viability, T/C","second compound 0.3 µM, first compound 0.316 µM",2.03%
same,"viability, T/C","second compound 0.3 µM, first compound 1 µM",2.14%
